Series [1] is described as follows: Toxicity in twelve hrs fasted Beagle dog assessed as emesis at 1 mg/kg,po and measured upto 180 mins. To be noted: in vivo, 3 h. Type of series: organism-based, Canis lupus familiaris.
The nature of series [2]: Metabolic stability in rat liver microsomes assessed as half life. Type of series: ADME, Microsome. Background: Liver microsomes are vesicles of endoplasmic reticulum, rich in cytochrome P450 enzymes.
In series [3] the target is T1, 3',5'-cyclic-AMP phosphodiesterase 4D (Homo sapiens, UniProt Q08499). As to the kind of experiment: Inhibition of recombinant PDE4D2 (86 to 413 residues) (unknown origin) expressed in Escherichia coli BL21 using [3H]cAMP as substrate incubated for 15 mins by liquid scintillation method.
T1 sequence (Q08499 whole entry, the tested form may be a part): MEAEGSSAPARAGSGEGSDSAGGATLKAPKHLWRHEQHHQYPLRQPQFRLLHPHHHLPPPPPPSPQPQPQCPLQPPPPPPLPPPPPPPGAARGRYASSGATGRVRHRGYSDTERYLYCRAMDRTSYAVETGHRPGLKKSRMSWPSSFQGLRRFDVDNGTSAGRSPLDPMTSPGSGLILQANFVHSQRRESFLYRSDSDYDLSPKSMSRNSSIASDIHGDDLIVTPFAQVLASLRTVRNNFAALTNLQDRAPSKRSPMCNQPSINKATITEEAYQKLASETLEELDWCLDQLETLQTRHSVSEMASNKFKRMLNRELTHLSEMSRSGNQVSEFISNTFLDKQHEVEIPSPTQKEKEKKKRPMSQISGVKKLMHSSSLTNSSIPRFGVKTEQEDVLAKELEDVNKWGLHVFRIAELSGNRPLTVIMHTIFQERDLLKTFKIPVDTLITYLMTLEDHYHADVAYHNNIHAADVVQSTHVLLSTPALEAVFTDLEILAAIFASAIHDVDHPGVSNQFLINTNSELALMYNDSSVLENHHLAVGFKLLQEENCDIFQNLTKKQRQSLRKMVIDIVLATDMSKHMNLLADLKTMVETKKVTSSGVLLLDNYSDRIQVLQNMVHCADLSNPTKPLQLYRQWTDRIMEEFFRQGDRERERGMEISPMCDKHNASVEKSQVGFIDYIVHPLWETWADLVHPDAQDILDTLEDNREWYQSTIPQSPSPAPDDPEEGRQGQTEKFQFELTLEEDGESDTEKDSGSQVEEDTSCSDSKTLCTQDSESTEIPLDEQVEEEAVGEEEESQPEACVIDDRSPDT
The target in series [4] is T1, 3',5'-cyclic-AMP phosphodiesterase 4D. As to the kind of experiment: Inhibition of PDE4D2 (unknown origin).
Series [5] can be described thus: Inhibition of PDE7 (unknown origin). Also on record: species or system Homo sapiens.
Series [6] has as its system Mus musculus. As to the kind of experiment: Anti-inflammatory bowel disease activity in DSS-induced inflammatory bowel disease C57BL/6 mouse model assessed as decrease in body weight loss by measuring disease activity index score at 25 mg/kg, iv BID and measured upto 8 days. Type of series: functional, organism-based. To be noted: time <= 8.0 day.
Series [7] concerns Mus musculus. Description: Anti-inflammatory bowel disease activity in DSS-induced inflammatory bowel disease C57BL/6 mouse model assessed as decrease in diarrhoea by measuring disease activity index score at 25 mg/kg, iv BID and measured upto 8 days. Type of series: functional, organism-based. To be noted: time <= 8.0 day.
Series [8] has as its system Mus musculus. Description: Anti-inflammatory bowel disease activity in DSS-induced inflammatory bowel disease C57BL/6 mouse model assessed as decrease in rectal bleeding by measuring disease activity index score at 25 mg/kg, iv BID and measured upto 8 days by Haem-occult test. Type of series: functional, organism-based. To be noted: time <= 8.0 day.
For series [9], the system named is Mus musculus. Description: Anti-inflammatory bowel disease activity in DSS-induced inflammatory bowel disease C57BL/6 mouse model assessed as increase in colon length at 25 mg/kg, iv BID and measured upto 8 days. Type of series: functional, organism-based. To be noted: time <= 8.0 day.
For series [10], the system named is Mus musculus. Description: Anti-inflammatory bowel disease activity in DSS-induced inflammatory bowel disease C57BL/6 mouse model assessed as decrease in mucosal ulceration in colon at 25 mg/kg, iv BID and measured after 8 days by Haematoxylin and eosin staining based microscopy. Type of series: functional, organism-based. To be noted: time 8.0 day.
Series [11] deals with Mus musculus. As to the kind of experiment: Anti-inflammatory bowel disease activity in DSS-induced inflammatory bowel disease C57BL/6 mouse model assessed as decrease in loss of crypt architecture in colon at 25 mg/kg, iv BID and measured after 8 days by Haematoxylin and eosin staining based microscopy. Type of series: functional, organism-based. To be noted: time 8.0 day.

Series [12] relates to Mus musculus. As to the kind of experiment: Anti-inflammatory bowel disease activity in DSS-induced inflammatory bowel disease C57BL/6 mouse model assessed as decrease in goblet cells in colon at 25 mg/kg, iv BID and measured after 8 days by Haematoxylin and eosin staining based microscopy. Type of series: functional, organism-based. To be noted: time 8.0 day.
Series [13] concerns Mus musculus. As to the kind of experiment: Anti-inflammatory bowel disease activity in DSS-induced inflammatory bowel disease C57BL/6 mouse model assessed as decrease in epithelial damage in colon at 25 mg/kg, iv BID and measured after 8 days by Haematoxylin and eosin staining based microscopy. Type of series: functional, organism-based. To be noted: time 8.0 day.
The test system of series [14] is Mus musculus. As to the kind of experiment: Anti-inflammatory bowel disease activity in DSS-induced inflammatory bowel disease C57BL/6 mouse assessed as decrease in neutrophil infiltration in colon at 25 mg/kg, iv BID and measured after 8 days by Haematoxylin and eosin staining based microscopy. Type of series: functional, organism-based. To be noted: time 8.0 day.

Series [15] relates to Mus musculus. Description: Anti-inflammatory bowel disease activity in DSS-induced inflammatory bowel disease C57BL/6 mouse model assessed as increase in body weight at 25 mg/kg, iv BID and measured after 8 days […]. To be noted: time 8.0 day. Type of series: functional, organism-based.
Series [16] relates to Mus musculus. Description: Anti-inflammatory bowel disease activity in DSS-induced inflammatory bowel disease C57BL/6 mouse model assessed as decrease in IFN-gamma mRNA expression level in colon at 25 mg/kg, iv BID and measured after 8 days by real-time PCR analysis. Type of series: functional, organism-based. To be noted: time 8.0 day.
Series [17] has as its system Mus musculus. Description: Anti-inflammatory bowel disease activity in DSS-induced inflammatory bowel disease C57BL/6 mouse model assessed as decrease in TNF-alpha mRNA expression level in colon at 25 mg/kg, iv BID and measured after 8 days by real-time PCR analysis. Type of series: functional, organism-based. To be noted: time 8.0 day. (Real-time PCR tracks product formation cycle by cycle.)

For series [18], the system named is Mus musculus. Description: Anti-inflammatory bowel disease activity in DSS-induced inflammatory bowel disease C57BL/6 mouse model assessed as decrease in IL-6 mRNA expression level in colon at 25 mg/kg, iv BID and measured after 8 days by real-time PCR analysis. Type of series: functional, organism-based. To be noted: time 8.0 day.
In series [19] the test system is Mus musculus. Description: Anti-inflammatory bowel disease activity in DSS-induced inflammatory bowel disease C57BL/6 mouse model assessed as decrease in IL-10 mRNA expression level in colon at 25 mg/kg, iv BID and measured after 8 days by real-time PCR analysis. Type of series: functional, organism-based. To be noted: time 8.0 day.

Calls of active or inactive are those of the source.

For orientation: half-life means the time needed for the level to fall by half in the phase considered. A word on the IC50: it is the concentration at which inhibition is half-maximal.

As for `COc1ccc(C2CNC(=O)C2)cc1OC1CCCC1` (stereo not drawn) [ROLIPRAM], in series [1], the Activity result was “Toxic”.

Turning to `COc1c(O)cc2oc3cc4c(c(O)c3c(=O)c2c1CC=C(C)C)C=CC(C)(C)O4` [MANGOSTANIN], the half-life in series [2] worked out at 8.1 min.

Take `COc1c(OCc2cccc(F)c2)cc2oc3cc4c(c(OCc5ccncc5)c3c(=O)c2c1CC=C(C)C)C=CC(C)(C)O4`: the IC50 in series [3] amounted to 7.8 nM.

With `COc1c(OC(C)C)cc2oc3cc4c(c(OCc5ccncc5)c3c(=O)c2c1CC=C(C)C)C=CC(C)(C)O4`, the IC50 in series [3] stood at 5.2 nM. Further, in series [2], the half-life amounted to 78 min.

As to `COc1cc2oc3cc4c(c(OCc5ccncc5)c3c(=O)c2c(CC=C(C)C)c1OC)C=CC(C)(C)O4`, in series [3], the IC50 was 11.7 nM. Moreover, the half-life in series [2] worked out at 2.08 min.

Regarding `OCCN(CCO)c1nc(N2CCCCC2)c2nc(N(CCO)CCO)nc(N3CCCCC3)c2n1` [DIPYRIDAMOLE], the figures for the IC50 in series [4] and in [5] were 2800 nM and 600 nM, respectively. The result in the series with Mus musculus [6], with Mus musculus [7], with Mus musculus [8], in the series with Mus musculus [9], with Mus musculus [10] and in the series with Mus musculus [11] was Active. Also, the outcome with Mus musculus [12], in the series with Mus musculus [13], in the series with Mus musculus [14], with Mus musculus [16], in the series with Mus musculus [17] and with Mus musculus [18] was Active. Also, in the series on Mus musculus [19], the result was Active. The result in the series with Mus musculus [15] was inactive.

Turning to `COc1c(OCc2cccc(F)c2)cc2oc3cc4c(c(OCc5ccccn5)c3c(=O)c2c1CC=C(C)C)C=CC(C)(C)O4`, the 50% inhibitory concentration (IC50) in series [3] worked out at 9.3 nM.

Consider `COc1c(OCc2ccccn2)cc2oc3cc4c(c(OCc5ccccn5)c3c(=O)c2c1CC=C(C)C)C=CC(C)(C)O4`, for which, in [3], the IC50 turned out to be 6.5 nM. In series [2], the half-life is 3 min.

For `COc1c(OCc2ccccc2)cc2oc3cc4c(c(OCc5ccncc5)c3c(=O)c2c1CC=C(C)C)C=CC(C)(C)O4`, the IC50 in [3] was found to be 1.4 nM. The half-life in series [2] amounted to 315 min.

In the case of `COc1c(O)cc2oc3cc4c(c(OCc5ccccn5)c3c(=O)c2c1CC=C(C)C)C=CC(C)(C)O4`, the half-maximal inhibitory concentration (IC50) in [3] is 203 nM. Moreover, in series [2], the half-life worked out at 0.9 min.

Regarding `COc1c(O)cc2oc3cc4c(c(OCc5ccncc5)c3c(=O)c2c1CC=C(C)C)C=CC(C)(C)O4`, the half-inhibitory concentration (IC50) in [3] stood at 25 nM. Also, the half-life in [2] worked out at 6.7 min.

`COc1c(O)cc2oc3cc4c(c(OCc5cccnc5)c3c(=O)c2c1CC=C(C)C)C=CC(C)(C)O4`: the IC50 in series [3] is > 1000 nM.

As to `COc1c(OCc2ccncc2)cc2oc3cc4c(c(OCc5ccncc5)c3c(=O)c2c1CC=C(C)C)C=CC(C)(C)O4`, the IC50 in series [3] is 10.6 nM. Further, in series [2], the half-life was 16 min.

On to `COc1c(OCc2ccc(F)cc2)cc2oc3cc4c(c(OCc5ccncc5)c3c(=O)c2c1CC=C(C)C)C=CC(C)(C)O4`, for which the IC50 in series [3] is 1.4 nM. In addition, the half-life in series [2] worked out at 33 min.

For the compound `COc1c(OCc2ccc(F)cc2)cc2oc3cc4c(c(OCc5ccccn5)c3c(=O)c2c1CC=C(C)C)C=CC(C)(C)O4`, the 50% inhibitory concentration (IC50) in [3] amounted to 20.2 nM.

Take `COc1c(OCc2ccc(F)cc2)cc2oc3cc4c(c(OCc5cccnc5)c3c(=O)c2c1CC=C(C)C)C=CC(C)(C)O4`: the IC50 in series [3] was 8.2 nM.

`COc1c(OCc2ccc(F)cc2)cc2oc3cc4c(c(OCC5CCNCC5)c3c(=O)c2c1CC=C(C)C)C=CC(C)(C)O4`: the half-inhibitory concentration (IC50) in [3] was 12.4 nM.

For the compound `CCOc1cc2oc3cc4c(c(OCc5ccncc5)c3c(=O)c2c(CC=C(C)C)c1OC)C=CC(C)(C)O4`, the IC50 in series [3] was determined as 10.2 nM. For the same compound, in series [2], the half-life came out at 2.98 min.

As to `COc1c(O)cc2oc3cc4c(c(OCc5ccccc5)c3c(=O)c2c1CC=C(C)C)C=CC(C)(C)O4`, the IC50 in [3] was > 1000 nM.

For the origin of these results see ChEMBL document CHEMBL5338717, “Discovery of novel PDE4 inhibitors targeting the M-pocket from natural mangostanin with improved safety for the treatment of Inflammatory Bowel Diseases” (Eur J Med Chem, 2022).
